# Legend:
# late hNav1.5 = molecular target: T1, late hNav1.5 (Homo sapiens, UniProt Q14524); assay: Automated patch clamp, late hNav1.5 current block (ATX-II activated); format: cell-based
# T1 construct: expressed in transfected cells; host or cells: HEK293 or CHO, depending on site
# Method: However, all external solutions contained 30 nM ATX-II in order to activate late current. Late current was measured at its maximum during the repolarizing ramp.
# Concentration-response relationships for each test article were independently investigated, i.e., each cell received only one test article, typically evaluating multiple concentrations in a cumulative fashion (lowest to highest concentrations). However, some platforms tested only one concentration per well. Each concentration response was based on a minimum of four concentrations, with a minimum of three wells used for each concentration. In cases of high variability, more cells per concentration were recorded. Prior to drug addition, cells received an addition of vehicle to measure non-test article-related effects such as addition artifacts. At the end of the experiment, a supramaximal concentration of a known inhibitory reference compound was applied to assess leak current and appropriate responsiveness of the test system.
# (§1) The steady state current at each concentration was used to determine the concentration-response relationships. Mean concentration-response data were fitted to a standard sigmoidal four-parameter logistic equation (GraphPad Prism 7; GraphPad Inc., La Jolla, CA) of the form: Y=Bottom+(Top−Bottom)/(1+10^∧(LogIC50−X)∗HillSlope) where Y is the current inhibition (in % of pre-drug control), X is the logarithm of drug concentration, and IC50 is the drug concentration producing half-maximal current inhibition. Curve fitting was performed using the following constraints: Top = 100%, Bottom = 0%, Hill Slope <2. No curve fitting was performed in cases with an obvious lack of a concentration-dependent current inhibition and/or small effect size (approximately ≤20%).
# hERG = hERG (Homo sapiens, UniProt Q12809); assay: Automated patch clamp, hERG current block, Milnes protocol (site s06); format: cell-based; parameters: expressed in transfected cells; host or cells: HEK293 or CHO, depending on site (site s06, Milnes protocol: HEK293); conditions: s06_p4, HEK293, 22–24 °C
# From the text: Thus, a single test site (s06) elicited hERG current with a 10-s depolarizing voltage step from −80 mV to 0 mV every 25 s (Milnes protocol, see Milnes et al.[14]).
# as §1
# This protocol consists of a set of two 25-s-long pulse protocols, with one protocol (“Pulse”) containing a prolonged 10-s-long depolarizing test pulse (0 mV) followed by a 14-s-long return pulse to −80 mV, and a second protocol “No-Pulse” consisting of the same pulse structure without the depolarizing test pulse[18].
# peak hNav1.5 = molecular target: T2, peak hNav1.5 (Homo sapiens, UniProt Q14524); assay: Automated patch clamp, peak hNav1.5 current block; format: cell-based
# T2 construct: expressed in transfected cells; host or cells: HEK293 or CHO, depending on site
# hCav1.2 = hCav1.2 (Homo sapiens, UniProt Q13936); assay: Automated patch clamp, hCav1.2 current block; conditions: for IC50: log IC50, half-maximal inhibitory concentration
# [1] = site_platform s06_p4, 1.00E-04 mol/L
# [2] = site_platform s06_p4, 1.00E-06 mol/L
# [3] = site_platform s07_p6, 1.00E-04 mol/L
# [4] = site_platform s07_p6, 1.00E-06 mol/L
# [5] = site_platform s13_p2, 1.00E-04 mol/L
# [6] = site_platform s13_p2, 1.00E-06 mol/L
# [7] = site_platform s14_p1, 1.00E-04 mol/L
# [8] = site_platform s14_p1, 1.00E-06 mol/L
# Chain of hCav1.2 (Q13936 whole entry): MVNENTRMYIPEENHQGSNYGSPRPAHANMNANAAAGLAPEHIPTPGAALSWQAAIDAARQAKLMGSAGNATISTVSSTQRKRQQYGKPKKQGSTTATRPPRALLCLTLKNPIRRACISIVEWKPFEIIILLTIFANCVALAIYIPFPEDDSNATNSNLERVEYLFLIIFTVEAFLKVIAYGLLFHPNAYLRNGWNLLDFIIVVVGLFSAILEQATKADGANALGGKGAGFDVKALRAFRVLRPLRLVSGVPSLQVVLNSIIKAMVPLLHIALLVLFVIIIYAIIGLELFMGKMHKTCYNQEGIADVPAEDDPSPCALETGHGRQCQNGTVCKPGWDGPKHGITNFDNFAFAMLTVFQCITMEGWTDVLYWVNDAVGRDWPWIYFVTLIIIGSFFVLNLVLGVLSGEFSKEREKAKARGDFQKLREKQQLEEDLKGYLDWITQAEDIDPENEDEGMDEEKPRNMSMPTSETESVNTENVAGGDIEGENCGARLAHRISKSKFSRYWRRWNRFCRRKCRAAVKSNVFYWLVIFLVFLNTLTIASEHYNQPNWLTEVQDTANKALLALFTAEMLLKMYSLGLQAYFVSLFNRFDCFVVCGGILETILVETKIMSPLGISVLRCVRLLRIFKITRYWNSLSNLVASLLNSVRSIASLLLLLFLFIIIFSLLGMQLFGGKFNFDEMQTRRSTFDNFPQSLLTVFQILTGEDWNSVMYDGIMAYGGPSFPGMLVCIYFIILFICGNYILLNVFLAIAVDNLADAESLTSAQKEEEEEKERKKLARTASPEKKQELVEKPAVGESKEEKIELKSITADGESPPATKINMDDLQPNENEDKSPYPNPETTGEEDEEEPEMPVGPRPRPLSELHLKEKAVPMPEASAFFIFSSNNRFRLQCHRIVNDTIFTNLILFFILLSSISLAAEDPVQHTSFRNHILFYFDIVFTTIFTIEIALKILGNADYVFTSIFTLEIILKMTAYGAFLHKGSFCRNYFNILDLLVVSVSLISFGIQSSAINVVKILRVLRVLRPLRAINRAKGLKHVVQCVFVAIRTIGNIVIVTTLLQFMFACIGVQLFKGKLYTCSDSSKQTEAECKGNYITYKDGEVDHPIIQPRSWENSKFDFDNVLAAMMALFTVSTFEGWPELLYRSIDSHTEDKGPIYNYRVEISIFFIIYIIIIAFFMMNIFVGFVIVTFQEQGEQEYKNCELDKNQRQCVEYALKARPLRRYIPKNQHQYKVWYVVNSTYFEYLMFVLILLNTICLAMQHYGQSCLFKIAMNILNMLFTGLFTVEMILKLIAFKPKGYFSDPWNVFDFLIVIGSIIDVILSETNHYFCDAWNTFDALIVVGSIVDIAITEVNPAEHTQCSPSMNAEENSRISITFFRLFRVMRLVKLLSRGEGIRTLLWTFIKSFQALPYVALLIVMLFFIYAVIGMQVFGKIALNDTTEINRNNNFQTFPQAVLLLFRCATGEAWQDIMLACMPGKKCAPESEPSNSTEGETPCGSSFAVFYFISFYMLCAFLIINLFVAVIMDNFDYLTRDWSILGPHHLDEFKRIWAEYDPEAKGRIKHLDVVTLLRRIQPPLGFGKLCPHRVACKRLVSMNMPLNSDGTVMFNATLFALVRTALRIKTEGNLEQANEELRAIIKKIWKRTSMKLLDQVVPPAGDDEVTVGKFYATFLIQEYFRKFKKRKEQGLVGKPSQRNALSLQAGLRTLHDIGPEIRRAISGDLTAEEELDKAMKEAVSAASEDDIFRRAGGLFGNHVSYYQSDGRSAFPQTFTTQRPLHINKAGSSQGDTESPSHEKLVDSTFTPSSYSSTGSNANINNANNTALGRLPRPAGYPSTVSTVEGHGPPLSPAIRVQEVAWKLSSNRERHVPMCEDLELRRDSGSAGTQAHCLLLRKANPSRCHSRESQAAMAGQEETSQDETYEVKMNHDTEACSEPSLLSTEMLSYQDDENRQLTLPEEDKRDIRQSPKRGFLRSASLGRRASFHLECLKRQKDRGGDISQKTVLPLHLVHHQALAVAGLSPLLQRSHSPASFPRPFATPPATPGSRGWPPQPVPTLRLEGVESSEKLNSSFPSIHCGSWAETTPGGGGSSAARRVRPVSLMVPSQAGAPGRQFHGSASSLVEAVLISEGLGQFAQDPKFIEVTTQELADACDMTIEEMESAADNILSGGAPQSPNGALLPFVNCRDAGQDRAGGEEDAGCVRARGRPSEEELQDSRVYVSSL
# Chain of hCav1.2 (Q08289 whole entry partner): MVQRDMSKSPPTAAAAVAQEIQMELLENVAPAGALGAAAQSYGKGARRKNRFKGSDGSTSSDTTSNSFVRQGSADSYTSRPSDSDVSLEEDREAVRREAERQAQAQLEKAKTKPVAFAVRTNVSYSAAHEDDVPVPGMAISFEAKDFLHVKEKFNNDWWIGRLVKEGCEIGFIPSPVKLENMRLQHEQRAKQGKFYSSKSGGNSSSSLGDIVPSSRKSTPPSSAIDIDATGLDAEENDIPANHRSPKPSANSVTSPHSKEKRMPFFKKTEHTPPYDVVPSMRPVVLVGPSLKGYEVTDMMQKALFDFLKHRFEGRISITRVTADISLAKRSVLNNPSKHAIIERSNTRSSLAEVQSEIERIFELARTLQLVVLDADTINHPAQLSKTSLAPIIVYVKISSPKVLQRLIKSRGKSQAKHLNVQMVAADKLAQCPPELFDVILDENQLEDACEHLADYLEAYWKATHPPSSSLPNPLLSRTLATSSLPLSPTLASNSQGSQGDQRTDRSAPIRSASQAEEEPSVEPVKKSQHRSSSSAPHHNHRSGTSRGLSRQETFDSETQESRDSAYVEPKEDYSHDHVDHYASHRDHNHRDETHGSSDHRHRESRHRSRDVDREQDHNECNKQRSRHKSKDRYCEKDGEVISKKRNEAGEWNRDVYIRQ
# Chain of hCav1.2 (P54289 25-956 partner limits assumed): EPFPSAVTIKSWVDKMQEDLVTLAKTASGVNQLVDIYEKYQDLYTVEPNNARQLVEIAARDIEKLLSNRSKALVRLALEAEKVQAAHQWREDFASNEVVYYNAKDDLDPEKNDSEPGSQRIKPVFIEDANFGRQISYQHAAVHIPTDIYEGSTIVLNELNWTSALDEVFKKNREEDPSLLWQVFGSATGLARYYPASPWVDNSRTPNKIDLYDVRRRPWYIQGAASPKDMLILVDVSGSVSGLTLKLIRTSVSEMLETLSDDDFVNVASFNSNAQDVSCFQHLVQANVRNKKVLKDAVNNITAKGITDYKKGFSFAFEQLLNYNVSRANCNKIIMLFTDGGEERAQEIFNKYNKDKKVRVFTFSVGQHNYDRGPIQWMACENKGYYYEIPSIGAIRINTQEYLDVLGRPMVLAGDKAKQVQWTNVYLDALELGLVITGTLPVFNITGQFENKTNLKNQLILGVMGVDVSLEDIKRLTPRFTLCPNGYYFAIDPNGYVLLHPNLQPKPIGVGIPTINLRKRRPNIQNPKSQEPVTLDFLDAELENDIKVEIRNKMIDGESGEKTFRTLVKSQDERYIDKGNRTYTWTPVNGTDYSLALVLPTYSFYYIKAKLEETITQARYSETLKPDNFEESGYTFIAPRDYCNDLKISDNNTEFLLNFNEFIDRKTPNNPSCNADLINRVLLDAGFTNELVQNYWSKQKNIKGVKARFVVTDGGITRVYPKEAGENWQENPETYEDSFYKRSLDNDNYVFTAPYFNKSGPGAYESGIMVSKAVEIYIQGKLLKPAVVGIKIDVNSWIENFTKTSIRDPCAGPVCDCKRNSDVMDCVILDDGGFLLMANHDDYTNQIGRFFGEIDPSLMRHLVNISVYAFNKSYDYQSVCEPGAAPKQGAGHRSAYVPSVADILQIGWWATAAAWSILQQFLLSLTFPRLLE
# Chain of hCav1.2 (P54289 957-1103 partner limits assumed): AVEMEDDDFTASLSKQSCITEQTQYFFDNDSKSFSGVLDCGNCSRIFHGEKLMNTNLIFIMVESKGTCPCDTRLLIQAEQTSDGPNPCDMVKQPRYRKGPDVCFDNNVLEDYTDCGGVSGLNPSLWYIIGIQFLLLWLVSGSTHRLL
# Chain of hERG (Q12809 whole entry): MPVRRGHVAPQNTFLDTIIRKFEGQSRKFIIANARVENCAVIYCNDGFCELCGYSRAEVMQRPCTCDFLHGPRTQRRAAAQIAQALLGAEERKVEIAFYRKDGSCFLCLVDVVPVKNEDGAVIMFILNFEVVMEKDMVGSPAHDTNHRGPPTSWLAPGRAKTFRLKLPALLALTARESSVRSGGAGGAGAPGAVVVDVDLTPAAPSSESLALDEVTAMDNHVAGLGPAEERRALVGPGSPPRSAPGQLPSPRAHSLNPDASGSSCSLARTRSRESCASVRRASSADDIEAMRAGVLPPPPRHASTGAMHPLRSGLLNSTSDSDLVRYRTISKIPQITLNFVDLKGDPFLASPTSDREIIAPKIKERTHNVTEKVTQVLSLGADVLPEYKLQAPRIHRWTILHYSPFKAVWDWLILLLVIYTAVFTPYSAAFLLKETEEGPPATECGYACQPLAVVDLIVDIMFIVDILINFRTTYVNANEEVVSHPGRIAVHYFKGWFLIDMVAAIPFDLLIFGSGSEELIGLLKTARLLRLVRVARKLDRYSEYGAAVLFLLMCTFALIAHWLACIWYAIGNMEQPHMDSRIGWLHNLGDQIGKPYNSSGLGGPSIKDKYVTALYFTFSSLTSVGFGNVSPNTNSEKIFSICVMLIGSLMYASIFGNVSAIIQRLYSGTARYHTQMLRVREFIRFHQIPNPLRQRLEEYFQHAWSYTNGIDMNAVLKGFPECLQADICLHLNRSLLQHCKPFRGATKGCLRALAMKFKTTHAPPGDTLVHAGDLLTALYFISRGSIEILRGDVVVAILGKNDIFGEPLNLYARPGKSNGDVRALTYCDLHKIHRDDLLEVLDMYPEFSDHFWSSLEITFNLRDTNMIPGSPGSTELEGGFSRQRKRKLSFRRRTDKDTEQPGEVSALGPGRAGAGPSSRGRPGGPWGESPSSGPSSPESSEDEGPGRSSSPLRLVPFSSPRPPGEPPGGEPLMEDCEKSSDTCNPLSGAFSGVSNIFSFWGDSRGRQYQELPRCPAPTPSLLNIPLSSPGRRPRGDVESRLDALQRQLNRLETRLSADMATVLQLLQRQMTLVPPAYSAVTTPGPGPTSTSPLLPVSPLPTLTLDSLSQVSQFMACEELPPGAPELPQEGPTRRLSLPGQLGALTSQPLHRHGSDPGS
compound,measurement,setting,value
"Cc1cccc(C)c1OCC(C)N (stereo not shown) [mex, mexiletine]","nH, Hill slope, late hNav1.5 inhibition",late hNav1.5; site_platform s06_p4,0.97
same,"Late hNav1.5 Na+ current inhibition, Mean",late hNav1.5; [1],96.2%
same,"Late hNav1.5 Na+ current inhibition, Mean",late hNav1.5; [2],18.9%
same,"nH, Hill slope, late hNav1.5 inhibition",late hNav1.5; site_platform s07_p6,1.16
same,"Late hNav1.5 Na+ current inhibition, Mean",late hNav1.5; [3],89.6%
same,"Late hNav1.5 Na+ current inhibition, Mean",late hNav1.5; [4],5.5%
same,"nH, Hill slope, late hNav1.5 inhibition",late hNav1.5; site_platform s13_p2,0.53
same,"Late hNav1.5 Na+ current inhibition, Mean",late hNav1.5; [5],76.8%
same,"Late hNav1.5 Na+ current inhibition, Mean",late hNav1.5; [6],26.4%
same,"nH, Hill slope, late hNav1.5 inhibition",late hNav1.5; site_platform s14_p1,4.08
same,"Late hNav1.5 Na+ current inhibition, Mean",late hNav1.5; [7],98.8%
same,"Late hNav1.5 Na+ current inhibition, Mean",late hNav1.5; [8],-15.4%
same,"hERG K+ current nH, Hill slope",hERG,1.02
same,"hERG K+ current inhibition, Mean, at maximal concentration","hERG; max conc [mol/L]: bep 3.00E-07, cpz 3.00E-06, cis 3.00E-07, dil 1.00E-04, dof 1.00E-07, mex 1.00E-04, ond 1.00E-05, qui 1.00E-05, ran 1.00E-04, sot 3.00E-04, ter 3.00E-07, ver 1.00E-06",71.6%
same,"hERG K+ current inhibition, Mean, at minimal concentration","hERG; min conc [mol/L]: bep 1.00E-08, cpz 1.00E-07, cis 1.00E-09, dil 3.00E-06, dof 1.00E-09, mex 1.00E-06, ond 3.00E-07, qui 1.00E-07, ran 3.00E-06, sot 1.00E-05, ter 1.00E-08, ver 3.00E-08",-3.4%
same,IC50,hERG; read-out: hERG K+ current log IC50 (converted),37.2 µM
same,hNav1.5 IC50 variability (25/75 percentiles),peak hNav1.5; across sites and platforms,4 fold
same,"nH (Hill slope), peak hNav1.5 Na+ current inhibition",peak hNav1.5; site_platform s01_p1,0.31
same,"Peak hNav1.5 Na+ current inhibition, Mean","peak hNav1.5; site_platform s01_p1, 1.00E-04 mol/L",89.8%
same,"Peak hNav1.5 Na+ current inhibition, Mean","peak hNav1.5; site_platform s01_p1, 1.00E-06 mol/L",57.9%
same,"nH (Hill slope), peak hNav1.5 Na+ current inhibition",peak hNav1.5; site_platform s02_p2,0.99
same,"Peak hNav1.5 Na+ current inhibition, Mean","peak hNav1.5; site_platform s02_p2, 1.00E-04 mol/L",54.9%
same,"Peak hNav1.5 Na+ current inhibition, Mean","peak hNav1.5; site_platform s02_p2, 1.00E-06 mol/L",-1.5%
same,"nH (Hill slope), peak hNav1.5 Na+ current inhibition",peak hNav1.5; site_platform s04_p3,0.51
same,"Peak hNav1.5 Na+ current inhibition, Mean","peak hNav1.5; site_platform s04_p3, 1.00E-04 mol/L",47.7%
same,"Peak hNav1.5 Na+ current inhibition, Mean","peak hNav1.5; site_platform s04_p3, 1.00E-06 mol/L",8.8%
same,"nH (Hill slope), peak hNav1.5 Na+ current inhibition",peak hNav1.5; site_platform s06_p4,1.28
same,"Peak hNav1.5 Na+ current inhibition, Mean",peak hNav1.5; [1],62.4%
same,"Peak hNav1.5 Na+ current inhibition, Mean",peak hNav1.5; [2],2.4%
same,"nH (Hill slope), peak hNav1.5 Na+ current inhibition",peak hNav1.5; site_platform s07_p6,0.86
same,"Peak hNav1.5 Na+ current inhibition, Mean",peak hNav1.5; [3],79.8%
same,"Peak hNav1.5 Na+ current inhibition, Mean",peak hNav1.5; [4],7.1%
same,"nH, Hill slope, peak hNav1.5 inhibition",peak hNav1.5; site_platform s10_p3,0.84
same,"Peak hNav1.5 Na+ current inhibition, Mean","peak hNav1.5; site_platform s10_p3, 1.00E-04 mol/L",53.9%
same,"Peak hNav1.5 Na+ current inhibition, Mean","peak hNav1.5; site_platform s10_p3, 1.00E-06 mol/L",6.6%
same,"nH, Hill slope, peak hNav1.5 inhibition",peak hNav1.5; site_platform s11_p1,0.56
same,"Peak hNav1.5 Na+ current inhibition, Mean","peak hNav1.5; site_platform s11_p1, 1.00E-04 mol/L",50.8%
same,"Peak hNav1.5 Na+ current inhibition, Mean","peak hNav1.5; site_platform s11_p1, 1.00E-06 mol/L",10.7%
same,"nH, Hill slope, peak hNav1.5 inhibition",peak hNav1.5; site_platform s12_p2,0.72
same,"Peak hNav1.5 Na+ current inhibition, Mean","peak hNav1.5; site_platform s12_p2, 1.00E-04 mol/L",58.7%
same,"Peak hNav1.5 Na+ current inhibition, Mean","peak hNav1.5; site_platform s12_p2, 1.00E-06 mol/L",4.9%
same,"nH, Hill slope, peak hNav1.5 inhibition",peak hNav1.5; site_platform s13_p2,0.89
same,"Peak hNav1.5 Na+ current inhibition, Mean",peak hNav1.5; [5],50.5%
same,"Peak hNav1.5 Na+ current inhibition, Mean",peak hNav1.5; [6],2.3%
same,"nH, Hill slope, peak hNav1.5 inhibition",peak hNav1.5; site_platform s14_p1,0.84
same,"Peak hNav1.5 Na+ current inhibition, Mean",peak hNav1.5; [7],65.7%
same,"Peak hNav1.5 Na+ current inhibition, Mean",peak hNav1.5; [8],6.3%
same,"nH, Hill slope, peak hNav1.5 inhibition",peak hNav1.5; site_platform s15_p1,0.56
same,"Peak hNav1.5 Na+ current inhibition, Mean","peak hNav1.5; site_platform s15_p1, 1.00E-04 mol/L",88.2%
same,"Peak hNav1.5 Na+ current inhibition, Mean","peak hNav1.5; site_platform s15_p1, 1.00E-06 mol/L",30.6%
same,"nH, Hill slope, peak hNav1.5 inhibition",peak hNav1.5; site_platform s16_p3,0.69
same,"Peak hNav1.5 Na+ current inhibition, Mean","peak hNav1.5; site_platform s16_p3, 1.00E-04 mol/L",43.0%
same,"Peak hNav1.5 Na+ current inhibition, Mean","peak hNav1.5; site_platform s16_p3, 1.00E-06 mol/L",5.6%
same,"nH, Hill slope, peak hNav1.5 inhibition",peak hNav1.5; site_platform s17_p1,0.83
same,"Peak hNav1.5 Na+ current inhibition, Mean","peak hNav1.5; site_platform s17_p1, 1.00E-04 mol/L",75.6%
same,"Peak hNav1.5 Na+ current inhibition, Mean","peak hNav1.5; site_platform s17_p1, 1.00E-06 mol/L",10.3%
same,"nH, Hill slope, peak hNav1.5 inhibition",peak hNav1.5; site_platform s18_p1,0.98
same,"Peak hNav1.5 Na+ current inhibition, Mean","peak hNav1.5; site_platform s18_p1, 1.00E-04 mol/L",83.9%
same,"Peak hNav1.5 Na+ current inhibition, Mean","peak hNav1.5; site_platform s18_p1, 1.00E-06 mol/L",6.1%
same,"nH, Hill slope, peak hNav1.5 inhibition",peak hNav1.5; site_platform s19_p3,0.51
same,"Peak hNav1.5 Na+ current inhibition, Mean","peak hNav1.5; site_platform s19_p3, 1.00E-04 mol/L",55.6%
same,"Peak hNav1.5 Na+ current inhibition, Mean","peak hNav1.5; site_platform s19_p3, 1.00E-06 mol/L",12.4%
same,IC50,hCav1.2; site s01_p1,372 µM
same,IC50,hCav1.2; site s06_p4,178 µM
same,IC50,hCav1.2; site s14_p1,234 µM
same,IC50,hCav1.2; site s16_p3,251 µM
same,IC50,hCav1.2; site s18_p1,162 µM
same,"nH, Hill slope",hCav1.2; site s01_p1,0.60
same,"Peak hCav1.2 Ca2+ current inhibition, Mean","hCav1.2; site s01_p1, 1.00E-04 mol/L",34.0%
same,"Peak hCav1.2 Ca2+ current inhibition, Mean","hCav1.2; site s01_p1, 1.00E-06 mol/L",10.1%
same,"log IC50, half-maximal inhibitory concentration","hCav1.2; site s02_p2, corrected for rundown",no inh.
same,"Peak hCav1.2 Ca2+ current inhibition, Mean","hCav1.2; site s02_p2, corrected for rundown, 1.00E-04 mol/L",1.8%
same,"Peak hCav1.2 Ca2+ current inhibition, Mean","hCav1.2; site s02_p2, corrected for rundown, 1.00E-06 mol/L",-11.1%

# Source: article PMC7101356, “Cross-site and cross-platform variability of automated patch clamp assessments of drug effects on human cardiac currents in recombinant cells” (Scientific Reports, 2020)
